Assay results from patent US10717733B2, “Haloallylamine indole and azaindole derivative inhibitors of lysyl oxidases and uses thereof” (PHARMAXIS LTD., priority 2016, dated 2020).
Where a name gives a salt, the structure may show the parent alone.

Experiments:
Assay type in all cases: biochemical
[1] = target: Bovine LOX (Bos taurus (Bovine), UniProt P33072); experiment: LOX inhibition, peroxidase-coupled Amplex Red amine oxidase assay; settings: 30 min preincubation at 37° C., putrescine substrate
Summary of the method: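 Bovine LOX in 1.2 M urea, 50 mM sodium borate pH 8.2 with 1 μM mofegiline and 0.5 mM pargyline; putrescine at twice KM (e.g. 20 mM for LOX) with Amplex Red/HRP. Fluorescence (ex 565/em 590 nm) read kinetically over 30 min at 37–45 °C; IC50 from slopes.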

[2] = target: Human LOXL2 (Homo sapiens (Human), UniProt Q9Y4K0); experiment: LOXL2 inhibition, peroxidase-coupled Amplex Red amine oxidase assay; settings: 30 min preincubation at 37° C., putrescine substrate
Summary of the method: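 Enzyme in 1.2 M urea, 50 mM sodium borate pH 8.2 with 1 μM mofegiline and 0.5 mM pargyline, preincubated 30 min at 37° C with compound (11-point CRC). Putrescine at twice KM (10 mM for LOXL2) with Amplex Red/HRP; fluorescence (ex 565, em 590) read kinetically 30 min; IC50 from slopes.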

[3] = target: human recombinant SSAO/VAP-1 (Homo sapiens (Human), UniProt Q16853); experiment: Inhibition of human recombinant SSAO/VAP-1 amine oxidase activity; settings: 30 min preincubation at 37° C., 600 μM benzylamine
Summary of the method: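 Purified SSAO/VAP-1 (residues 34-763, expressed in CHO Lec 8 cells; 0.25 μg/mL) preincubated 30 min at 37° C with compound in 0.1 M sodium phosphate pH 7.4. Reaction mix of 600 μM benzylamine, 120 μM Amplex Red and 1.5 U/mL HRP added; fluorescence (ex 565/em 590 nm) read every 2.5 min for 30 min; IC50 from kinetic slopes over 4-11 point curves.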

[4] = target: Recombinant human MAO-B (Homo sapiens (Human), UniProt P27338); experiment: Inhibition of human recombinant MAO-B; settings: benzylamine 100 μM
Summary of the method: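 Recombinant human MAO-B used as enzyme source (0.06 mg/mL, stated concentration). Run as for the human SSAO/VAP-1 assay, except benzylamine substrate at 100 μM.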

Recombinant human MAO-B, sequence (P27338 whole entry): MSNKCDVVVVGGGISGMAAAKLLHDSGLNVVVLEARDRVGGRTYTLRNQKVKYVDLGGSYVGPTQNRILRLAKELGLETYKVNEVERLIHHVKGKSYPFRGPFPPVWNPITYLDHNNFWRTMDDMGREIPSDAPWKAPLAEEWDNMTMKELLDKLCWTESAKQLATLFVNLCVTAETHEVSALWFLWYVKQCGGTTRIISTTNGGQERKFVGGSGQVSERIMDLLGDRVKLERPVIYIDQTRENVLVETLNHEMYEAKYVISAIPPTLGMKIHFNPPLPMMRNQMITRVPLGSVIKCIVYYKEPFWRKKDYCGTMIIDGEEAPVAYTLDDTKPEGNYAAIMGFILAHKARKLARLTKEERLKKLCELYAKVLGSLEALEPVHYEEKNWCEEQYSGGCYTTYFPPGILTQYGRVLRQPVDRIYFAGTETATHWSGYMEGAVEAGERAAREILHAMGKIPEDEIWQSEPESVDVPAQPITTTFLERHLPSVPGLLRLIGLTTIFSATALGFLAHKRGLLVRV
Human LOXL2, sequence (Q9Y4K0 26-774): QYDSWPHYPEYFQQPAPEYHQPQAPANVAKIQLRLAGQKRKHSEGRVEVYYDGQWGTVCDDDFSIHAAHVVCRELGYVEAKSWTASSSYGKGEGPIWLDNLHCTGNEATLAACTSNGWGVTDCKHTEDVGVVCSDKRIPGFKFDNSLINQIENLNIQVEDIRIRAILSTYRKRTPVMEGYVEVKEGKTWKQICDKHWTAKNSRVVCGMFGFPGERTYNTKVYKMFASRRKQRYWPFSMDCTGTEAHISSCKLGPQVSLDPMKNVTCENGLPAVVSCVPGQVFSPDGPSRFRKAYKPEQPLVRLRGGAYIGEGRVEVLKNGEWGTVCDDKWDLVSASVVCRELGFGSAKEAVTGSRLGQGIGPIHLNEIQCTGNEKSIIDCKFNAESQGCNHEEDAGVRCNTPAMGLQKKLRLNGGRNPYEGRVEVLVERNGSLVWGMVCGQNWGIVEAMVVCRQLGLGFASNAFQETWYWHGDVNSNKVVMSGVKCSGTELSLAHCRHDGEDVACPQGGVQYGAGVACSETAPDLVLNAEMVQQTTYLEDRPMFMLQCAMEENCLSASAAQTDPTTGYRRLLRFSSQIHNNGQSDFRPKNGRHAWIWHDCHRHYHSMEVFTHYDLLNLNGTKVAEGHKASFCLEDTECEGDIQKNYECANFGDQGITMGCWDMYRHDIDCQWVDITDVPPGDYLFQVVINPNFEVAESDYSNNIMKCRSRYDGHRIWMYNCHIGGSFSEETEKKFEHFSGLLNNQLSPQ
human recombinant SSAO/VAP-1, sequence (Q16853 34-763): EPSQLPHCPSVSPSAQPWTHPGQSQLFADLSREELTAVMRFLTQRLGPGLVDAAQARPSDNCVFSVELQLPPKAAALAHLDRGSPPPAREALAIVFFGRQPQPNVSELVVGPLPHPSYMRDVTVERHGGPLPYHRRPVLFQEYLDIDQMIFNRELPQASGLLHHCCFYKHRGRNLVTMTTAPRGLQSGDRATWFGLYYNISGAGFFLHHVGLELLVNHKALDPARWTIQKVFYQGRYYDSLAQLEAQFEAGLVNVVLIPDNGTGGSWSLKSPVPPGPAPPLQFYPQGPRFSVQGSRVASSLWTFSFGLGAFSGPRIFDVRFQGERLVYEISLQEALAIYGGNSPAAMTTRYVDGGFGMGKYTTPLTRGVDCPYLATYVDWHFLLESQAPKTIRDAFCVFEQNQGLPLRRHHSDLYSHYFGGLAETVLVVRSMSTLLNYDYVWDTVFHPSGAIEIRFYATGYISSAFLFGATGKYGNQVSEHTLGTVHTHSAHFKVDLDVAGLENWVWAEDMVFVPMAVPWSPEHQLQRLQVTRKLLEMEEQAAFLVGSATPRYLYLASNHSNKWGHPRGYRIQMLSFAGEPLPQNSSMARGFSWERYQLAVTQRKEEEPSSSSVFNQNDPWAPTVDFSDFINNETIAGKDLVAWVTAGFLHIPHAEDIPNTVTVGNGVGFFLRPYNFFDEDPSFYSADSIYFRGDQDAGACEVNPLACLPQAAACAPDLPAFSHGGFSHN
Bovine LOX, sequence (P33072 170-418): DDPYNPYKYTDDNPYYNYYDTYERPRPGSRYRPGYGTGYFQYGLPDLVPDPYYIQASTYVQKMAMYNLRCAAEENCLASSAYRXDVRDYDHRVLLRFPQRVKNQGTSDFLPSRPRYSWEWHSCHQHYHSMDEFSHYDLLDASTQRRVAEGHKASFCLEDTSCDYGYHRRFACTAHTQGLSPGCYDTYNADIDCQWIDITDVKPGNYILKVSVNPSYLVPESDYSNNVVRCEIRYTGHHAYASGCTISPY

## CCOC(=O)c1ccc2c(c1)c(-c1cc(S(=O)(=O)N(C)C)ccc1C)c(C)n2C/C(F)=C/CN [Compound 19, (Z)-ethyl 1-(4-amino-2-fluorobut-2-en-1-yl)-3-(5-(N,N-dimethylsulfamoyl)-2-methylphenyl)-2-methyl-1H-indole-5-carboxylate]
[1]
  IC50: > 300 nM
[2]
  IC50: < 300 nM
[3]
  IC50: > 3000 nM
[4]
  IC50: > 3000 nM

## Cc1cc(-c2c(C)n(C/C(F)=C/CN)c3ccc(C(=O)N(C)C)cc23)cc(C)n1 [Compound 90, (Z)-1-(4-amino-2-fluorobut-2-en-1-yl)-3-(2,6-dimethylpyridin-4-yl)-N,N,2-trimethyl-1H-indole-5-carboxamide]
[1]
  IC50: > 300 nM
[2]
  IC50: < 300 nM
[3]
  IC50: > 3000 nM
[4]
  IC50: > 3000 nM

## CN(C)S(=O)(=O)c1cccc(-c2c(Cl)n(C/C(F)=C/CN)c3cccnc23)c1 [Compound 99, (Z)-3-(1-(4-amino-2-fluorobut-2-en-1-yl)-2-chloro-1H-pyrrolo[3,2-b]pyridin-3-yl)-N,N-dimethylbenzenesulfonamide]
[1]
  IC50: > 300 nM
[2]
  IC50: < 300 nM
[3]
  IC50: > 3000 nM
[4]
  IC50: > 3000 nM

## CNC(=O)c1ccc2c(n1)c(-c1cccc(S(=O)(=O)N(C)C)c1)c(C)n2C/C(F)=C/CN [Compound 46, (Z)-1-(4-amino-2-fluorobut-2-en-1-yl)-3-(3-(N,N-dimethylsulfamoyl)phenyl)-N,2-dimethyl-1H-pyrrolo[3,2-b]pyridine-5-carboxamide]
[1]
  IC50: > 300 nM
[2]
  IC50: < 300 nM
[3]
  IC50: > 3000 nM
[4]
  IC50: > 3000 nM

## Cc1c(-c2cccc(S(=O)(=O)N(C)C)c2)c2cc(Cl)ccc2n1C/C(F)=C/CN [Compound 62, (Z)-3-(1-(4-amino-2-fluorobut-2-en-1-yl)-5-chloro-2-methyl-1H-indol-3-yl)-N,N-dimethylbenzenesulfonamide]
[1]
  IC50: > 300 nM
[2]
  IC50: < 300 nM
[3]
  IC50: > 3000 nM
[4]
  IC50: > 3000 nM

## Cc1c(-c2cccc(S(=O)(=O)N(C)C)n2)c2cc(Cl)ccc2n1C/C(F)=C/CN [Compound 78, (Z)-6-(1-(4-amino-2-fluorobut-2-en-1-yl)-5-chloro-2-methyl-1H-indol-3-yl)-N,N-dimethylpyridine-2-sulfonamide]
[1]
  IC50: > 300 nM
[2]
  IC50: < 300 nM
[3]
  IC50: > 3000 nM
[4]
  IC50: > 3000 nM

## CN(C)S(=O)(=O)c1cncc(-c2c(Cl)n(C/C(F)=C/CN)c3ccccc23)c1 [Compound 96, (Z)-5-(1-(4-amino-2-fluorobut-2-en-1-yl)-2-chloro-1H-indol-3-yl)-N,N-dimethylpyridine-3-sulfonamide]
[1]
  IC50: > 300 nM
[2]
  IC50: < 300 nM
[3]
  IC50: > 3000 nM
[4]
  IC50: > 3000 nM

## Cc1c(-c2cccc(S(=O)(=O)N(C)C)c2)c2ccc(C(=O)O)cc2n1C/C(F)=C/CN [Compound 9, (Z)-1-(4-amino-2-fluorobut-2-en-1-yl)-3-(3-(N,N-dimethylsulfamoyl)phenyl)-2-methyl-1H-indole-6-carboxylic acid]
[1]
  IC50: > 300 nM
[2]
  IC50: < 300 nM
[3]
  IC50: > 3000 nM
[4]
  IC50: > 3000 nM

## Cc1c(-c2cccc(C(=O)N(C)C)c2)c2cc(C(=O)O)ccc2n1C/C(F)=C/CN [Compound 16, (Z)-1-(4-amino-2-fluorobut-2-en-1-yl)-3-(3-(dimethylcarbamoyl)phenyl)-2-methyl-1H-indole-5-carboxylic Acid Hydrochloride]
[1]
  IC50: > 300 nM
[2]
  IC50: < 300 nM
[3]
  IC50: > 3000 nM
[4]
  IC50: > 3000 nM

## Cc1c(-c2cccc(S(=O)(=O)N(C)C)c2)c2ccccc2n1C/C(F)=C/CN [Compound 2, (Z)-3-(1-(4-amino-2-fluorobut-2-en-1-yl)-2-methyl-1H-indol-3-yl)-N,N-dimethylbenzenesulfonamide]
[1]
  IC50: > 300 nM
[2]
  IC50: < 300 nM
[3]
  IC50: > 3000 nM
[4]
  IC50: > 3000 nM

## CCOC(=O)c1ccc2c(c1)c(-c1cccc(S(C)(=O)=O)c1)c(C)n2C/C(F)=C/CN [Compound 17, (Z)-ethyl 1-(4-amino-2-fluorobut-2-en-1-yl)-2-methyl-3-(3-(methylsulfonyl)phenyl)-1H-indole-5-carboxylate]
[1]
  IC50: > 300 nM
[2]
  IC50: < 300 nM
[3]
  IC50: > 3000 nM
[4]
  IC50: > 3000 nM

## Cc1c(-c2cccc(S(=O)(=O)N(C)C)c2)c2nc(F)ccc2n1C/C(F)=C/CN [Compound 109, (Z)-3-(1-(4-amino-2-fluorobut-2-en-1-yl)-5-fluoro-2-methyl-1H-pyrrolo[3,2-b]pyridin-3-yl)-N,N-dimethylbenzenesulfonamide]
[1]
  IC50: > 300 nM
[2]
  IC50: < 300 nM
[3]
  IC50: > 3000 nM
[4]
  IC50: > 3000 nM

## Cc1c(-c2cccc(S(=O)(=O)N(C)C)c2)c2nc(C(=O)N(C)C)ccc2n1C/C(F)=C/CN [Compound 44, (Z)-1-(4-amino-2-fluorobut-2-en-1-yl)-3-(3-(N,N-dimethylsulfamoyl)phenyl)-N,N,2-trimethyl-1H-pyrrolo[3,2-b]pyridine-5-carboxamide]
[1]
  IC50: > 300 nM
[2]
  IC50: < 300 nM
[3]
  IC50: > 3000 nM
[4]
  IC50: > 3000 nM

## Cc1c(-c2cccc(S(=O)(=O)N(C)C)c2)c2cc(-c3nn[nH]n3)ccc2n1C/C(F)=C/CN [Compound 29, (Z)-3-(1-(4-amino-2-fluorobut-2-en-l-yl)-2-methyl-5-(2H-tetrazol-5-yl)-1H-indol-3-yl)-N,N-dimethylbenzenesulfonamide, Hydrochloride]
[1]
  IC50: > 300 nM
[2]
  IC50: < 300 nM
[3]
  IC50: > 3000 nM
[4]
  IC50: > 3000 nM

## Cc1c(-c2cccc(S(=O)(=O)N(C)C)c2)c2nc(C(=O)O)ccc2n1C/C(F)=C/CN [Compound 43, (Z)-1-(4-amino-2-fluorobut-2-en-1-yl)-3-(3-(N,N-dimethylsulfamoyl)phenyl)-2-methyl-1H-pyrrolo[3,2-b]pyridine-5-carboxylic acid]
[1]
  IC50: > 300 nM
[2]
  IC50: < 300 nM
[3]
  IC50: > 3000 nM
[4]
  IC50: > 3000 nM

## Cc1c(-c2cncc(S(=O)(=O)N(C)C)c2)c2ncc(Cl)cc2n1C/C(F)=C/CN [Compound 72, (Z)-5-(1-(4-amino-2-fluorobut-2-en-1-yl)-6-chloro-2-methyl-1H-pyrrolo[3,2-b]pyridin-3-yl)-N,N-dimethylpyridine-3-sulfonamide]
[1]
  IC50: > 300 nM
[2]
  IC50: < 300 nM
[3]
  IC50: > 3000 nM
[4]
  IC50: > 3000 nM

## Cc1c(-c2cccc(S(=O)(=O)N(C)C)c2)c2cc(S(C)(=O)=O)ccc2n1C/C(F)=C/CN [Compound 97, (Z)-3-(1-(4-amino-2-fluorobut-2-en-1-yl)-2-methyl-5-(methylsulfonyl)-1H-indol-3-yl)-N,N-dimethylbenzenesulfonamide]
[1]
  IC50: > 300 nM
[2]
  IC50: < 300 nM
[3]
  IC50: > 3000 nM
[4]
  IC50: > 3000 nM

## Cc1c(-c2ccc(S(=O)(=O)N(C)C)cc2)c2ccccc2n1C/C(F)=C/CN [Compound 3, (Z)-4-(1-(4-amino-2-fluorobut-2-en-1-yl)-2-methyl-1H-indol-3-yl)-N,N-dimethylbenzenesulfonamide]
[1]
  IC50: > 300 nM
[2]
  IC50: < 300 nM
[3]
  IC50: > 3000 nM
[4]
  IC50: > 3000 nM

## Cc1cc(-c2c(C)n(C/C(F)=C/CN)c3ccc(S(C)(=O)=O)cc23)cc(C)n1 [Compound 89, (Z)-4-(3-(2,6-dimethylpyridin-4-yl)-2-methyl-5-(methylsulfonyl)-1H-indol-1-yl)-3-fluorobut-2-en-1-amine]
[1]
  IC50: > 300 nM
[2]
  IC50: < 300 nM
[3]
  IC50: > 3000 nM
[4]
  IC50: > 3000 nM

## Cc1c(-c2ccncc2)c2cc(Cl)ccc2n1C/C(F)=C/CN [Compound 76, (Z)-4-(5-chloro-2-methyl-3-(pyridin-4-yl)-1H-indol-1-yl)-3-fluorobut-2-en-1-amine]
[1]
  IC50: > 300 nM
[2]
  IC50: < 300 nM
[3]
  IC50: > 3000 nM
[4]
  IC50: > 3000 nM

## CN(C)S(=O)(=O)c1cncc(-c2cn(C/C(F)=C/CN)c3ccc(Cl)cc23)c1 [Compound 66, (Z)-5-(1-(4-amino-2-fluorobut-2-en-1-yl)-5-chloro-1H-indol-3-yl)-N,N-dimethylpyridine-3-sulfonamide]
[1]
  IC50: > 300 nM
[2]
  IC50: < 300 nM
[3]
  IC50: > 3000 nM
[4]
  IC50: > 3000 nM

## Cc1c(-c2cccc(S(=O)(=O)N(C)C)c2)c2cc(S(=O)(=O)C(C)C)ccc2n1C/C(F)=C/CN [Compound 106, (Z)-3-(1-(4-amino-2-fluorobut-2-en-1-yl)-5-(isopropylsulfonyl)-2-methyl-1H-indol-3-yl)-N,N-dimethyl-benzenesulfonamide Hydrochloride]
[1]
  IC50: > 300 nM
[2]
  IC50: < 300 nM
[3]
  IC50: > 3000 nM
[4]
  IC50: > 3000 nM

## Cc1c(-c2cncnc2)c2cc(Cl)ccc2n1C/C(F)=C/CN [Compound 80, (Z)-4-(5-chloro-2-methyl-3-(pyrimidin-5-yl)-1H-indol-1-yl)-3-fluorobut-2-en-1-amine]
[1]
  IC50: > 300 nM
[2]
  IC50: < 300 nM
[3]
  IC50: > 3000 nM
[4]
  IC50: > 3000 nM

## Cc1c(-c2cccc(C(C)(C)C)c2)c2cc(C(=O)O)ccc2n1C/C(F)=C/CN [Compound 31, (Z)-1-(4-amino-2-fluorobut-2-en-l-yl)-3-(3-(tert-butyl)phenyl)-2-methyl-1H-indole-5-carboxylic acid, Hydrochloride]
[1]
  IC50: > 300 nM
[2]
  IC50: < 300 nM
[3]
  IC50: > 3000 nM
[4]
  IC50: > 3000 nM
